According to US20160317418A1, “METHOD OF IMPROVING THE APPEARANCE OF SKIN AND COMPOSITIONS THEREFOR” (The Procter & Gamble Company, priority 2015, published 2016):
“Also recorded” adds a separate entry of the source.

Key:
[1] = system: human neonatal keratinocytes; experiment: Melanosome Uptake Assay (CFDA-labeled melanosomes, flow cytometry); format: cell-based; conditions: for % Uptake: 0.0025 w/v % in keratinocyte medium, fraction of keratinocytes with detectable CFDA, vehicle control 36; for Rate of Melanosome Uptake Versus Control: 0.0025 w/v %, vehicle control = 100%
Experimental: Melanosome uptake was determined as follows. Carboxyfluorescein diacetate (“CFDA”) (available from Sigma, St. Louis, Mo.) labeled melanosomes were prepared by incubating CFDA dye in SKMEL-188 culture cells (available from Sloan Kettering Institute) for 2 days at 37° C. in a THERMO SCIENTIFIC FORMA brand CO2 incubator (available from Fisher Scientific, Waltham, Mass.). On day 3 of the test, melanosomes were isolated from SKMEL-188 cells by step density centrifugation with sucrose solutions layered with different densities, which is well known in the art. Melanosomes were taken from the 1.6 M-2.0 M sucrose layers. The isolated melanosomes were placed in each well of a 6-well plate along with human neonatal keratinocytes (available from Thermo) (approximately 50,000 keratinocytes/well). 2 ml of the appropriate medium (i.e., the test composition, the positive control or the vehicle control) was added to each of the wells to produce […] (i.e., 3 replicates of each of three composition tested). The test composition was made by adding nicotinamide riboside chloride powder (available from Chromadex, Irvine, Calif.) to EPILIFE brand keratinocyte medium to produce a solution of 0.0025 w/v % nicotinamide riboside. The positive control was made by adding niacinamide to EPILIFE brand keratinocyte medium to produce a solution of 0.0025 w/v % niacinamide. Unmodified keratinocyte medium was used as a vehicle control.
The resulting test plates were incubated for two days in EPILIFE brand keratinocyte medium. On day 6 of the test, the keratinocytes were detached from the plates using trypsin and fluorescent-label counted by flow cytometry using an LSRFortessa brand flow cytometer (available from Becton Dickinson, NJ). The percentage of cells that had fluorescence (from CFDA label) was used as a metric to determine melanosome uptake. Keratinocytes containing detectable levels of CFDA were counted as a fraction of all keratinocytes passing through the flow cytometer (indicated as % uptake in Table 2). A higher percentage corresponds to a higher level of melanosome uptake into the keratinocytes.

[2] = system: HMGB1 protein released from keratinocytes; experiment: In Vitro UV Stress Test: HMGB1 released from UVB-exposed keratinocytes (ELISA); format: cell-based, human; conditions: for HMGB1 Released: 0.001 w/v % after 15 mJ/cm^2 UVB, 24 hours, UV untreated 19.4, no UV 10.5; for effect on amount of HMGB1 protein released by keratinocytes exposed to UVB (in words): compared to the untreated UVB exposed cells
Experimental: This example compares the ability of nicotinamide riboside and niacinamide to reduce the amount of HMGB1 protein released from keratinocytes subjected to stress from ultraviolet (“UV”) radiation. Human neonatal keratinocytes (available from Thermo) were placed in each well of four 12-well plates. Each well also contained 2 ml of EPILIFE brand keratinocyte medium. The plates were incubated at 37° C. in a CO2 incubator until cell confluency reached 70%. At this point, the cells, except for the negative control, were exposed to 15 mJ/cm^2 UVB (i.e., UV radiation with a wavelength of from 315-280 nm) in a BIO-SUN brand UV irradiating system (available from Vilber Lourmat, France). After UVB exposure, the keratinocyte medium in each well was replaced with an appropriate medium (i.e., niacinamide medium, nicotinamide riboside medium or a control medium) to produce the test plates. The test plates were incubated for 24 hours at 37° C. in a CO2 incubator, after which the medium in each cell was removed and the HMGB1 level measured using a conventional HMGB1 ELISA kit (REF # ST51011, available from IBL International, Canada) according to the manufacturer's instructions. The test media were made by adding either niacinamide or nicotinamide riboside to EPILIFE brand keratinocyte medium to produce a 0.001 w/v % solution. The control medium was unmodified keratinocyte medium.

| Compound | % Uptake [1] [%] | Rate of Melanosome Uptake Versus Control [1] [%] | effect on uptake of melanosomes from melanocytes into keratinocytes (in words) ([1]; compared to the vehicle control) | HMGB1 Released [2] [pg/mL] | effect on amount of HMGB1 protein released by keratinocytes exposed to UVB (in words) [2] |
| --- | --- | --- | --- | --- | --- |
| NC(=O)c1cccnc1 [niacinamide, reference compound] | 26 | 72 | inhibit the rate of melanosome uptake | 17.8 | no significant effect |
| Nicotinamide riboside [NR] | 67 | 186 |  | 11.5 | reduces the amount of HMGB1 protein released from keratinocytes; also recorded: released less HMGB1 protein |
